Experimental data as given in PubChem BioAssay (NCI).
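Method: 48-hour compound exposure of cells in 96-well plates, five concentrations, linear interpolation of endpoints. TGI denotes the concentration required for complete inhibition of growth.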

Experiments:
Test in all cases: DTP human tumour cell line panel, 48 h
786-0 renal = system: 786-0 renal
A498 renal = system: A498 renal
A549 NSCLC = system: A549 NSCLC
ACHN renal = system: ACHN renal
CAKI-1 renal = system: CAKI-1 renal
CCRF-CEM leukemia = system: CCRF-CEM leukemia
COLO 205 colon = system: COLO 205 colon
DLD-1 colon = system: DLD-1 colon
DMS 114 small cell lung = system: DMS 114 small cell lung
EKVX NSCLC = system: EKVX NSCLC
HCC-2998 colon = system: HCC-2998 colon
HCT-116 colon = system: HCT-116 colon
HCT-15 colon = system: HCT-15 colon
HL-60(TB) leukemia = system: HL-60(TB) leukemia
HOP-18 NSCLC = system: HOP-18 NSCLC
HOP-62 NSCLC = system: HOP-62 NSCLC
HOP-92 NSCLC = system: HOP-92 NSCLC
HT29 colon = system: HT29 colon
IGROV1 ovarian = system: IGROV1 ovarian
K-562 leukemia = system: K-562 leukemia
KM12 colon = system: KM12 colon
KM20L2 colon = system: KM20L2 colon
LOX IMVI melanoma = system: LOX IMVI melanoma
LXFL 529 NSCLC = system: LXFL 529 NSCLC
M14 melanoma = system: M14 melanoma
M19-MEL melanoma = system: M19-MEL melanoma
MALME-3M melanoma = system: MALME-3M melanoma
NCI-H226 lung = system: NCI-H226 lung
NCI-H23 lung = system: NCI-H23 lung
NCI-H460 lung = system: NCI-H460 lung
NCI-H522 lung = system: NCI-H522 lung
OVCAR-3 ovarian = system: OVCAR-3 ovarian
OVCAR-4 ovarian = system: OVCAR-4 ovarian
OVCAR-5 ovarian = system: OVCAR-5 ovarian
OVCAR-8 ovarian = system: OVCAR-8 ovarian
RXF 393 renal = system: RXF 393 renal
RXF-631 renal = system: RXF-631 renal
SF-268 CNS = system: SF-268 CNS
SF-295 CNS = system: SF-295 CNS
SF-539 CNS = system: SF-539 CNS
SK-MEL-28 melanoma = system: SK-MEL-28 melanoma
SK-MEL-5 melanoma = system: SK-MEL-5 melanoma
SK-OV-3 ovarian = system: SK-OV-3 ovarian
SN12C renal = system: SN12C renal
SNB-19 CNS = system: SNB-19 CNS
SNB-75 CNS = system: SNB-75 CNS
SNB-78 CNS = system: SNB-78 CNS
SR leukemia = system: SR leukemia
SW-620 colon = system: SW-620 colon
TK-10 renal = system: TK-10 renal
U251 CNS = system: U251 CNS
UACC-257 melanoma = system: UACC-257 melanoma
UACC-62 melanoma = system: UACC-62 melanoma
UO-31 renal = system: UO-31 renal
XF 498 CNS = system: XF 498 CNS
MOLT-4 leukemia = system: MOLT-4 leukemia
SK-MEL-2 melanoma = system: SK-MEL-2 melanoma

Measured: TGI

N#Cc1cc([N+](=O)[O-])ccc1NC(=O)C(=O)C(C(=O)/C=C/c1ccccc1)C1OC(=O)c2ccccc21 (configuration not stated)
not listed: MOLT-4 leukemia | SK-MEL-2 melanoma
> 100 µM: all other assays above

Cc1ccc(C)c(NC(=O)CC/C(=N\NC(=O)C(N)=O)C(C)C(=O)c2ccc(O)cc2)c1 (configuration not stated)
not listed: A498 renal | NCI-H522 lung | SNB-75 CNS | TK-10 renal | XF 498 CNS
> 100 µM: all other assays above
